Measurements from patent EP4772507A1, “AZAINDOLE COMPOUND AND MEDICAL DRUG” (Nippon Shinyaku Co., Ltd., priority 2023, dated 2025).

Experiments:
[1] = Central nervous system (CNS) penetration study in mice; type: in vivo; settings: female, BALB/cCrSlc, mouse, ip, 30 mg/kg intraperitoneally, three hours later, cerebrum and plasma by LC-MS/MS, read-out: Brain-to-plasma concentration ratio (Kp value)
Experimental: To evaluate the central nervous system (CNS) penetration of a test substance, a central nervous system penetration study was conducted using mice.
Six-week-old female BALB/cCrSlc mice (Japan SLC) were used. The test substance suspended in 0.5% methylcellulose was intraperitoneally administered to mice at a dose of 30 mg/kg. Three hours later, blood was collected from the abdominal vena cava under isoflurane anesthesia, and plasma was obtained by centrifugation. After exsanguination from the abdominal vena cava, the cerebrum was collected.
The drug concentrations of the collected plasma and cerebrum were measured by LC-MS/MS. To determine the brain penetration of the drug, the brain-to-plasma concentration ratio (Kp value) was calculated.

[2] = molecular target: T1, C-terminal catalytic domain of MALT1 (amino acid residues 329-824) (Homo sapiens, UniProt Q9UDY8); assay: MALT1 protease inhibitory activity (enzyme activity inhibition assay, fluorogenic substrate); type: biochemical; settings: substrate Ac-Leu-Arg-Ser-Arg-AMC 50 µM; 30°C for 2 hours; fluorescence
T1 construct: C-terminal catalytic domain of MALT1 (amino acid residues 329-824)
T1 sequence (Q9UDY8 329-824): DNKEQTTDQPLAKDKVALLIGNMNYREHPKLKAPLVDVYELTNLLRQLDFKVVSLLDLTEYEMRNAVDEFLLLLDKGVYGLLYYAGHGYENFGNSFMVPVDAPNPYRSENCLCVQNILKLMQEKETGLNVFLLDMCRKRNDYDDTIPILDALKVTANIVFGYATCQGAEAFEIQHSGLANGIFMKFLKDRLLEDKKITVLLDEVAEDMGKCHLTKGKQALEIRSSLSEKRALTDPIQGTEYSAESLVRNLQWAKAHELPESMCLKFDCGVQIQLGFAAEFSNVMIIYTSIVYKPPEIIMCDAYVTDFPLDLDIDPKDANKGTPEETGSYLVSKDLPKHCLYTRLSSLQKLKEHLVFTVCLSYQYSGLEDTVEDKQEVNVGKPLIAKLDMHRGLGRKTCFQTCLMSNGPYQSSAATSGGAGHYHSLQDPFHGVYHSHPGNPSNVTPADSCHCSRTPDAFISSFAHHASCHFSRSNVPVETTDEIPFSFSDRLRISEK
Experimental: To evaluate the enzyme inhibitory activity of a test substance against MALT1, an enzyme activity inhibition assay was conducted using the C-terminal catalytic domain of MALT1 (amino acid residues 329-824).
A test substance was prepared at a concentration of 10 mM in dimethyl sulfoxide (DMSO) and further diluted with DMSO to obtain final concentrations of 1000, 100, 10, 1, and 0.1 µM. The solutions were further diluted 25-fold with an assay buffer to prepare final test substance solutions. The composition of the assay buffer was 200 mM Tris/HCl HEPES (pH 7.5), 0.8 M Na citrate, 100 µM DTT, and 0.05% CHAPS.
The test substance solution was added to a 384-well black plate (#6007270, PerkinElmer) in an amount of 5 µL per well (n = 2; final concentrations of 10000, 1000, 100, 10, 1, and 0.1 nM), followed by the addition of 10 µL of MALT1 enzyme and finally 5 µL of a substrate solution (Ac-Leu-Arg-Ser-Arg-AMC, Peptide Institute, Inc.; final concentration in the reaction mixture: 50 µM), and after stirring, the mixture was allowed to react at 30°C for 2 hours. Fluorescence (excitation: 380 nm, emission: 460 nm) was detected using a microplate reader (EnVision, PerkinElmer).
Using the measurement data, non-linear regression analysis based on a 2-parameter logistic model was performed with Spotfire (PerkinElmer) to calculate IC50.

SU-DHL-4 cell lines = assay: Proliferation inhibition test, GCB-DLBCL cell line SU-DHL-4 (negative control line); type: cell-based; settings: Homo sapiens; SU-DHL-4 (GCB-DLBCL, NF-κB pathway-independent, negative control); 96 hours; Cell Counting Kit-8; read-out: Proliferation inhibitory activity against SU-DHL-4 IC50
Experimental: (§1) In ABC-DLBCL cell lines, the NF-κB pathway is constitutively activated due to mutations in the B-cell receptor pathway. To evaluate the proliferation inhibitory activity associated with the MALT1 inhibitory activity of the test substance, a proliferation inhibition test was conducted using ABC-DLBCL cell lines.
(§2) The test substance was prepared at a concentration of 10 mM in dimethyl sulfoxide (DMSO) and further diluted with DMSO to each of concentrations of 3,000, 1,000, 300, 100, 30, and 10 µM. The solutions were further diluted 100-fold with IMDM medium containing 10% FBS to prepare test substance solutions.
(§3) OCI-Ly3 cell lines (ABC-DLBCL, NF-κB pathway-dependent) were cultured in IMDM containing 10% FBS, and SU-DHL-4 cell lines (GCB-DLBCL, NF-κB pathway-independent, used as a negative control) were cultured in RPMI-1640 containing 10% FBS. Into a 96-well plate, 2,000 cells of the OCI-Ly3 cell line and 4,000 cells of the SU-DHL-4 cell line were seeded in 100 µL per well, and 11 µL of the adjusted test substance solution was added thereto (final concentrations: 10,000, 3,000, 1,000, 300, 100, 30, and 10 nM). After 96 hours of incubation at 37°C in a 5% CO2 incubator, 10 µL of Cell Counting Kit-8 (Dojindo Laboratories) was added to each well. After 4 hours of incubation at 37°C, absorbance at 450 nm was detected using a microplate reader (EnVision, PerkinElmer).
(§4) Using the measurement data, non-linear regression analysis based on a 2-parameter logistic model was performed with Spotfire (PerkinElmer) to estimate IC50 values.

[3] = tested on: HEK293/API2-MALT1/NF-κB reporter cells; assay: Inhibition of reporter activity in HEK293/API2-MALT1/NF-κB reporter cells; type: cell-based; settings: Homo sapiens, 24 hours with test substance, One-glo luminescence
Experimental: The API2-MALT1 fusion protein, expressed in MALT lymphoma, is known to constitutively activate the NF-κB pathway. To evaluate the inhibitory effect of the test substance on the NF-κB pathway in cells, a reporter activity inhibition test was conducted using HEK293/API2-MALT1/NF-κB reporter cells.
The test substance was prepared at a concentration of 10 mM in dimethyl sulfoxide (DMSO) and further diluted with DMSO to each of concentrations of 1000, 300, 100, and 10 µM. The solutions were further diluted 100-fold with DMEM medium containing 10% FBS to prepare test substance solutions.
HEK293/API2-MALT1/NF-κB reporter cells and 293T/CMV reporter cells (used as a negative control) were cultured in DMEM medium containing 10% FBS. Into a 384-well plate (#781080, Greiner), 6,000 cells were seeded in 30 µL per well, and after culturing for 24 hours, 3.3 µL of the adjusted test substance solution was added thereto (final concentrations: 10,000, 1,000, 100, and 10 nM). After culturing for 24 hours at 37°C in a 5% CO2 incubator, 33 µL of One-glo (Promega) was added to each well. After a 5-minute incubation at room temperature, luminescence was detected using a microplate reader (EnVision, PerkinElmer).
Using the measurement data, non-linear regression analysis was performed with the SAS system (SAS Institute Inc.) to estimate IC50.

OCI-Ly3 cell lines = assay: Proliferation inhibition test, ABC-DLBCL cell line OCI-Ly3; type: cell-based; settings: Homo sapiens; OCI-Ly3 (ABC-DLBCL, NF-κB pathway-dependent); 96 hours; Cell Counting Kit-8; read-out: Proliferation inhibitory activity against OCI-Ly3 IC50
Experimental: as §1, §2, §3, §4

| Structure (SMILES) | Kp at 3 h [1] | IC50 [2] | IC50 (SU-DHL-4 cell lines) | IC50 [3] | IC50 (OCI-Ly3 cell lines) |
| --- | --- | --- | --- | --- | --- |
| Cn1cc(C(=O)c2cnn(-c3cncc4c(F)cccc34)c2C(F)(F)F)c2cc(Cl)c(-n3nccn3)nc21 [Example 6, [5-chloro-1-methyl-6-(2H-1,2,3-triazol-2-yl)-1H-pyrrolo[2,3-b]pyridin-3-yl][1-(8-fluoroisoquinolin-4-yl)-5-(trifluoromethyl)-1H-pyrazol-4-yl]methanone] | 0.83 | 13 nM | 2300 nM | 75 nM | 150 nM |
| CCn1cc(C(=O)c2cnn(-c3cncc4c(F)cccc34)c2C(F)(F)F)c2cc(Cl)c(-n3nccn3)nc21 [Example 7, [5-chloro-1-ethyl-6-(2H-1,2,3-triazol-2-yl)-1H-pyrrolo[2,3-b]pyridin-3-yl][1-(8-fluoroisoquinolin-4-yl)-5-(trifluoromethyl)-1H-pyrazol-4-yl]methanone] | 0.52 | 25 nM | 3200 nM | 150 nM | 130 nM |
| CCCn1cc(C(=O)c2cnn(-c3cncc4c(F)cccc34)c2C(F)(F)F)c2cc(Cl)c(-n3nccn3)nc21 [Example 8, [5-chloro-1-propyl-6-(2H-1,2,3-triazol-2-yl)-1H-pyrrolo[2,3-b]pyridin-3-yl][1-(8-fluoroisoquinolin-4-yl)-5-(trifluoromethyl)-1H-pyrazol-4-yl]methanone] | 0.52 | 39 nM | 2400 nM | 280 nM | 110 nM |
| C[C@@H]1CC(C(=O)c2cn(CCCO)c3nc(-c4ncccn4)c(Cl)cc23)C[C@@H](C)N1c1ncc(F)cc1I (stereo partly drawn) [Example 9, [5-chloro-1-(3-hydroxypropyl)-6-(pyrimidin-2-yl)-1H-pyrrolo[2,3-b]pyridin-3-yl][(2R,6R)-1-(5-fluoro-3-iodopyridin-2-yl)-2,6-dimethylpiperidin-4-yl]methanone] | 1.4 | 69 nM | 5100 nM | 140 nM | 480 nM |
| C[C@@H]1CC(C(=O)c2cn(C3COC3)c3nc(-c4ncccn4)c(Cl)cc23)C[C@@H](C)N1c1ncc(F)cc1I (stereo partly drawn) [Example 10, [5-chloro-1-(oxetan-3-yl)-6-(pyrimidin-2-yl)-1H-pyrrolo[2,3-b]pyridin-3-yl][(2R,6R)-1-(5-fluoro-3-iodopyridin-2-yl)-2,6-dimethylpiperidin-4-yl]methanone] | 1.7 | 67 nM | 6000 nM | 140 nM | 440 nM |
| C[C@@H]1CC(C(=O)c2cn(C)c3nc(-c4ncccn4)c(Cl)cc23)C[C@@H](C)N1c1ncc(F)cc1I (stereo partly drawn) [Example 11, [5-chloro-1-methyl-6-(pyrimidin-2-yl)-1H-pyrrolo[2,3-b]pyridin-3-yl][(2R,6R)-1-(5-fluoro-3-iodopyridin-2-yl)-2,6-dimethylpiperidin-4-yl]methanone] | 3 | 54 nM | 8900 nM | 230 nM | 290 nM |
| Cn1cc(C(=O)c2cnn(-c3cncc4c(F)cccc34)c2C(F)(F)F)c2cc(Cl)c(-c3ncccn3)nc21 [Example 12, [5-chloro-1-methyl-6-(pyrimidin-2-yl)-1H-pyrrolo[2,3-b]pyridin-3-yl][1-(8-fluoroisoquinolin-4-yl)-5-(trifluoromethyl)-1H-pyrazol-4-yl]methanone] | 0.66 | 11 nM | 1900 nM | 85 nM | 210 nM |
| CCn1cc(C(=O)C2C[C@@H](C)N(c3ncc(F)cc3I)[C@H](C)C2)c2cc(Cl)c(-n3nccn3)nc21 (stereo partly drawn) [Example 14, [5-chloro-1-ethyl-6-(2H-1,2,3-triazol-2-yl)-1H-pyrrolo[2,3-b]pyridin-3-yl][(2R,6R)-1-(5-fluoro-3-iodopyridin-2-yl)-2,6-dimethylpiperidin-4-yl]methanone] | 0.74 | 58 nM | 8500 nM | 70 nM | 470 nM |
| CC(C)n1cc(C(=O)C2C[C@@H](C)N(c3ncc(F)cc3I)[C@H](C)C2)c2cc(Cl)c(-n3nccn3)nc21 (stereo partly drawn) [Example 17, [5-chloro-1-isopropyl-6-(2H-1,2,3-triazol-2-yl)-1H-pyrrolo[2,3-b]pyridin-3-yl][(2R,6R)-1-(5-fluoro-3-iodopyridin-2-yl)-2,6-dimethylpiperidin-4-yl]methanone] | 0.26 | 160 nM | 6700 nM | 300 nM | 690 nM |
| CCn1cc(C(=O)C2C[C@@H](C)N(c3ncc(F)cc3I)[C@H](C)C2)c2cc(Cl)c(-c3ncccn3)nc21 (stereo partly drawn) [Example 18, [5-chloro-1-ethyl-6-(pyrimidin-2-yl)-1H-pyrrolo[2,3-b]pyridin-3-yl][(2R,6R)-1-(5-fluoro-3-iodopyridin-2-yl)-2,6-dimethylpiperidin-4-yl]methanone] | 0.63 | 65 nM | 6700 nM | 100 nM | 480 nM |
